From patent US20180265487A1, “SWEET TASTE MODULATORS” (Altria Client Services LLC, priority 2017, published 2018)

Test system: sweet taste perception
Experiment: time-intensity test of sweet taste (12 panelists, sample vs reference solution of 2 vol % sucrose, 1 vol % ethanol)
Format: in vivo, human
Conditions: for concentration at which perceived intensity and duration of sweet taste perception are increased: in 2 vol % sucrose
Description: The influence of the sweet taste modulators on the temporal perception of sweetness can be shown by means of time-intensity tests. For time-intensity tests, a reference solution containing 2 vol % sucrose and 1 vol % ethanol in water and sample solutions (i.e., concentration of stock aqueous solutions listed in Table 1 below) containing 2 vol % sucrose and 1 vol % ethanol and the test compound in different concentrations in water were rated on a horizontal, non-structured line scale from 0 (not detectable) to 10 (very strongly detectable). The reference solution served as a baseline for the time-intensity tests upon which the sample solutions were compared for the temporal perception of sweetness. Twelve panelists were asked to rinse their mouths with an aliquot (10 mL) of a solution and immediately start rating solution's sweet taste intensity for a period of 5 seconds. […] The rating results were the averages from the twelve panelists.
FIGS. 7A and 7B illustrate empirical (FIG. 7A) and predictive (FIG. 7B) model time-intensity experiments using the reference solution containing 2 vol % sucrose and 1 vol % ethanol in water and a sample solution containing 50 μM EMF, 2 vol % sucrose and 1 vol % ethanol in water. Time intensity tests enable continuous measurement of the intensity of taste impressions.
After calculating average time intensity (TI) curves using FIZZ biosystems calculations software and determining the TI curves integrated value (i.e., area under the curve), duration, and duration of the increasing and decreasing phase from individual TI curves, the trapezoidal method was applied after extraction of data points at 5% and 95% of the respective maximum intensity on the increasing and decreasing sections of the individual TI curves. The following parameters were extracted for further data analysis: maximum intensity (Imax) of taste perception experienced, total area under the curve (Atotal) 1 (i.e., total amount) of taste perception experienced and total duration (Dtotal) of taste perception experienced. Extracted parameters of sample solutions were normalized on the reference solution from the same evaluation session and a two-way analysis of variance (ANOVA) was conducted.
Table 2 below illustrates an overview of all p-values generated by two-way ANOVA of maximum intensity (Imax), total area under the curve (Atotal) land total duration (Dtotal) for sample solutions containing 5-ethyoxymethylfurfural (EMF), as well as ester of 5-hydroxymethylfurfural and vanillic acid (VanMF), 4-hydrozybenzaldehyde (pHBA), syringic aldehyde (SyA), and sinapic aldehyde (SinA), respectively. P-values (i.e., calculated probabilities) are statistical measures ranging from 0 to 1 which quantify the statistical significance of a data set. In other words, the p-value is a function of the observed sample results (a test statistic) relative to a statistical model, which measures how extreme the observation is. Smaller p-values are indicative of scaling significance. For example, p <0.05 are “significant” (*) (i.e., less than 1 in 20 chance, or 5%, of the data set being erroneous or inaccurate); p <0.01 are “highly significant” (**) (i.e., less than 1 in 100 chance, or 1%, of the data set being erroneous or inaccurate); and, p <0.001 are “very highly significant” (***) (less than 1 in 1000 chance, or 0.1%, of the data set being erroneous or inaccurate). Measured concentrations of EMF, VanMF, pHBA, SyA, and SinA in the sample solutions used in the statistical analysis are 10 μmol/L, 25 μmol/L, and 50 μmol/L, respectively. The p-values in Table 2 below relate to the statistical significance of the Imax, Atotal, and Dtotal values of sample solutions containing EMF, VanMF, pHBA, SyA, and SinA, respectively, in FIGS. 8-12.

| Structure (SMILES) | increase of Atotal vs reference solution (significance) (10 μM) | increase of Dtotal vs reference solution (significance) (10 μM) | increase of Imax vs reference solution (significance) (10 μM) | increase of Atotal vs reference solution (significance) (25 μM) | increase of Dtotal vs reference solution (significance) (25 μM) | increase of Imax vs reference solution (significance) (25 μM) | increase of Atotal vs reference solution (significance) (50 μM) | increase of Dtotal vs reference solution (significance) (50 μM) | increase of Imax vs reference solution (significance) (50 μM) | total area under the curve (Atotal) compared with reference solution (50 μM in 2 vol % sucrose, 1 vol % ethanol) | maximum intensity (Imax) of sweet taste perception on the intensity scale (50 μM in 2 vol % sucrose, 1 vol % ethanol, scale 0 to 10, reference solution about 3.5) | concentration at which perceived intensity and duration of sweet taste perception are increased (1 vol % ethanol) |
| --- | --- | --- | --- | --- | --- | --- | --- | --- | --- | --- | --- | --- |
| CCOCc1ccc(C=O)o1 [EMF, 5-ethoxymethyl-2-furaldehyde] | no significant increases | no significant increases | no significant increases | no significant increases | no significant increases | very highly significant increase | *** (p <0.001 are “very highly significant” (***)) | *** (p <0.001 are “very highly significant” (***)) | *** (p <0.001 are “very highly significant” (***)) | greater than Atotal for the reference solution | ~5 | at least 50 μM |
| COc1cc(/C=C/C=O)cc(OC)c1O [SinA, sinapic aldehyde] | significant increases | no significant increase | significant increases | significant increases | significant increases | significant increases | significant increases | significant increases | significant increases |  |  |  |
| COc1cc(C=O)cc(OC)c1O [SyA, syringic aldehyde] | do not have a significant influence | do not have a significant influence | do not have a significant influence | *** (p <0.001 are “very highly significant” (***)) | * (p <0.05 are “significant” (*)) | ** (p <0.01 are “highly significant” (**)) | ** (p <0.01 are “highly significant” (**)) |  | ** (p <0.01 are “highly significant” (**)) |  |  |  |
| COc1cc(C(=O)OCc2ccc(C=O)o2)ccc1O [VanMF, ester of 5-hydroxymethylfurfural and vanillic acid] | ** (p <0.01 are “highly significant” (**)) | ** (p <0.01 are “highly significant” (**)) | ** (p <0.01 are “highly significant” (**)) | * (p <0.05 are “significant” (*)) | * (p <0.05 are “significant” (*)) | ** (p <0.01 are “highly significant” (**)) | no significant increases | * (p <0.05 are “significant” (*)) | no significant increases |  |  |  |
| O=Cc1ccc(O)cc1 [pHBA, 4-hydrozybenzaldehyde] | No significant increases | No significant increases | No significant increases | ** (p <0.01 are “highly significant” (**)) |  | *** (p <0.001 are “very highly significant” (***)) | ** (p <0.01 are “highly significant” (**)) | ** (p <0.01 are “highly significant” (**)) | ** (p <0.01 are “highly significant” (**)) |  |  | 50 µM |
